# Assay: Viscosity of HPMC K4M solution with trospium chloride (Brookfield viscometer)
# Type: physicochemical
# Conditions: S18 spindle
# Protocol: Applicants have discovered that a certain interaction occurs between polarized oxygen atom containing-polymers and positively charged molecules, such as trospium chloride, which is exemplified by the dramatic change in viscosity of, for instance, an HPMC K4M solution when a drug in solution is added to it. An HPMC K4M solution was prepared and diluted to 2% by weight (or “w/w”) with either a trospium chloride solution or water. […] Without being bound to any particular theory, it is believed that this interaction leads to a slowed release of the active agent, and thus for the first time controlled release, once-daily formulations of highly water-soluble compounds can be made with relative ease.
# In order to examine the interaction of trospium chloride with HPMC K4M polymer, viscosity of HPMC K4M was measured at a polymer concentration of 2% w/w at room temperature. Also examined was a 2% w/w solution of HPMC K4M containing trospium chloride at a final concentration of 16.7% w/w.
# Viscosity was measured using a Brookfield viscometer fitted with an S18 spindle. Viscosity was measured at two spindle speeds. […] The contribution of the trospium chloride solution viscosity on the viscosity of the HPMC K4M solution is negligible.
smiles,measurement,setting,value
O=C(O[C@H]1C[C@H]2CC[C@@H](C1)[N+]21CCCC1)C(O)(c1ccccc1)c1ccccc1 [trospium chloride],viscosity of the HPMC K4M solution in the presence of the drug as compared to HPMC K4M solution without the drug,"2% w/w HPMC K4M, trospium chloride 16.7% w/w, room temperature, two spindle speeds",more than doubled
same,contribution of the trospium chloride solution viscosity on the viscosity of the HPMC K4M solution,Brookfield viscometer,negligible

# — patent publication US20060210625A1, “Sustained release of positively charged pharmacologically active molecules from a matrix containing polymers with polarized oxygen atoms” (Shire Laboratories, Inc., priority 2003, published 2006)
